Molecules are shown by their SMILES.

This series in a line: Human HepG2 cell viability assay in 384 well format. Type of series: toxicity, cell-based. The settings on record: HepG2 cells, read-out: Inhibition. Also noted: dose 125 nL, time 70.5 hour; cytotoxicity at 70.5 h: concentration not given beside the values.
For the compound `COc1ccc([C@@H]2CN(C(=O)CCCc3cn[nH]c3)C[C@H]2N(C)C)cc1`, the cytotoxicity at 70.5 h was found to be 9.02%. Regarding `CN(Cc1cn2c(n1)CN(C1CCOCC1)CC2)Cc1ccco1`, the cytotoxicity at 70.5 h is 24.6%. Then `CN(C)C(=O)Cn1cc(C#N)c(=O)c2cc(Br)ccc21`, with 1.29%; and `c1ccc(O[C@H]2CO[C@@]3(CCCN(Cc4nccs4)C3)C2)nc1`, with 42.1%; and `CCc1cc(=O)[nH]c(-n2nc(C3CC3)cc2NC(=O)C2CC2)n1`, with 42.7%. The value for `CCOc1ccc(Cl)c(C(=O)N(C)C)n1` was -2.99%. The value for `CC(C)(C)NS(=O)(=O)c1cc(NC(=O)C2CC2)ccc1F` was -5.03%. In the case of `CCc1c(C(=O)N2CCNC(=O)C2)cnn1C(C)(C)C`, the cytotoxicity at 70.5 h was -6.91%. Take `O=c1cc(CN2CCC(CCc3ccc(O)cc3)CC2)[nH]c(=O)[nH]1`: the cytotoxicity at 70.5 h was -6.15%. For the compound `COc1cc(CC(O)CC#N)c(OC)c2c1OCO2` (centres undefined), the cytotoxicity at 70.5 h is -9.38%. The value for `O=C(CCc1ccc(-n2cnnn2)cc1)Nc1nncs1` was -8.9%; that for `CC(OCC(F)(F)F)C(=O)N1CCCC1` (centres undefined) was -61.3%. Then `CC1=Nc2c(c(=O)[nH]n2C2CCCC2)C(c2cccc(O)c2)S1` (centres undefined), with 3.38%; and `COc1cc(N2C[C@H](C(=O)NCC3CC3)[C@@H]3CCO[C@@H]3C2)ncn1`, with -11.6%; and `CC(=O)NCCOc1cccc(Br)c1`, with 2.45%.

Regarding `CCOCC1CN(Cc2nccs2)Cc2nn(CC3CC3)cc21` (centres undefined), the cytotoxicity at 70.5 h was -9.99%.

Take `c1ccc(Cc2nc(CNCCn3cccn3)cs2)cc1`: the cytotoxicity at 70.5 h was determined as 1.06%.

Turning to `O=C(CCC1CCCO1)NS(=O)(=O)c1ccc(Cl)cc1` (centres undefined), the cytotoxicity at 70.5 h was -5.11%.

With `C1CCC(NCC2(N3CCOCC3)CCSC2)C1` (centres undefined), the cytotoxicity at 70.5 h was 14.2%. Consider `O=C(c1ccc(-n2ccnc2)cc1)N1CCCC(n2ccnc2)C1` (centres undefined), for which the cytotoxicity at 70.5 h was -6.23%. The value for `O=C(NCc1ccc2c(c1)CCCO2)c1ccc(C2CCNC2)cc1` (centres undefined) was -18%; that for `Cc1nc(C(=O)NS(=O)(=O)c2cccc(C#N)c2)cs1` was 17.6%; that for `CN1Cc2c(C(=O)N3CCOCC3)ncn2-c2ccccc2S1(=O)=O` was -1.47%. Then `Cc1ccnc(N2CCCC(c3nccn3C(C)C)C2)n1` (centres undefined), with 1.49%; and `O=C(CCOCc1ccccc1)NS(=O)(=O)N1CCOc2ccccc21`, with 11%. `CCC1=N[C@@]2(CC[C@@H]3CN(C(=O)Nc4ccccc4)C[C@@H]32)C(=O)N1C`: the cytotoxicity at 70.5 h was -85.8%. Then `Cc1ccc(OCC(=O)NCc2ccco2)nc1`, with -2.92%.

As to `COc1ccc(CC2CCCN2CCCC#N)cc1` (centres undefined), the cytotoxicity at 70.5 h is -4.33%. `CCCN(Cc1nc2ccccc2[nH]1)Cc1ccccc1OC`: the cytotoxicity at 70.5 h is -4%. Then `CC(C)c1n[nH]c(C2CN(C(=O)c3ccnc(C4CC4)n3)CCO2)n1` (centres undefined), with 16.3%; and `O=C(Nc1ccccn1)C1(n2cnnn2)CCCCC1`, with -21.1%; and `O=C(NCc1ccccn1)[C@]12COC[C@H]1CN(Cc1ccsc1)C2`, with -0.962%. The value for `Cc1ccc(C(C(=O)NCCN2CCC(CO)CC2)N(C)C)cc1` (centres undefined) was 27.1%; that for `O=C(CCCC1CCCC1)NS(=O)(=O)CC1CC1` was -2.25%; that for `Nc1nc2c(c(N3CCOCC3)n1)CCN(C(=O)c1ccc[nH]1)CC2` was -7.85%. The value for `O=C(C1CCCO1)N1CCC(Cn2cc(C3CCCC3)nn2)CC1` (centres undefined) was 2.36%; that for `Cc1ccc(C2COCCN2C(=O)c2ccc(C#N)cc2)o1` (centres undefined) was -7.82%. On to `Cc1noc(CCCC(=O)NC(C)c2cn(-c3ccccc3)nn2)n1` (centres undefined), for which the cytotoxicity at 70.5 h is -3%. In the case of `CCOc1ccc(NC(=O)NCc2csc(NC)n2)cc1C`, the cytotoxicity at 70.5 h is -5.86%. The value for `C[C@H](O)CNc1cc(-c2ccccc2)ncn1` was -0.249%; that for `O=C(CCc1cccc(Cl)c1)NS(=O)(=O)Cc1ccon1` was 1.74%; that for `CCC(O)CN1CCN(C(=O)c2ccn(C)c(=O)c2)CC1` (centres undefined) was -9.11%. In the case of `Cc1cnc(N2CCCn3c(nnc3CN(C)C(C)C)C2)nc1`, the cytotoxicity at 70.5 h was -1.83%. With `O=C(NCC1CCS(=O)(=O)C1)c1ccc2cccc(Cl)c2n1` (centres undefined), the cytotoxicity at 70.5 h is -5.5%.

For the compound `Cc1[nH]c2ccc(CNC(=O)c3ccc(CN4CCCC4)o3)cc2c1C`, the cytotoxicity at 70.5 h is -7.28%. Then `COc1ncccc1NC(=O)N1CCCC(CNC(=O)OC(C)(C)C)C1` (centres undefined), with -6.55%; and `Cc1cccnc1CSCCCNS(C)(=O)=O`, with -5.33%; and `Fc1ccc(NCc2ncc[nH]2)cc1Br`, with -7.28%. Then `COCC(=O)N[C@H]1C[C@H]2C(=O)NC[C@@H](CCC(=O)NC3CC3)N2C1`, with -2.9%; and `CCS(=O)(=O)N1CCn2c(COCC3CCOCC3)cnc2C1C` (centres undefined), with -5.13%. As to `CN(CCOCC1CC1)C(=O)Nc1ccc([S+](C)[O-])cc1` (centres undefined), the cytotoxicity at 70.5 h was -0.588%. As to `O=C(NCc1ccccn1)[C@@H]1COC[C@H]2CN(C3CCOCC3)C[C@H]21`, the cytotoxicity at 70.5 h was found to be 2.68%. As for `CS(=O)(=O)Cc1noc(CN(Cc2ccco2)c2ccccc2)n1`, the cytotoxicity at 70.5 h is -5.15%. `CC(C)NC(=O)N1CC(=O)c2sc(Nc3ccc(C#N)cc3)nc2C1`: the cytotoxicity at 70.5 h is -7.13%. The value for `CS(=O)(=O)N1CCN(CC(O)COc2ccc(F)cc2)CC1` (centres undefined) was -11.1%. Then `CN(C)c1ccc(CCNC(=O)C2CCC(=O)N(C3CCCC3)C2)cc1` (centres undefined), with -8%; and `Cc1ccc(O)c(CN2CCCCC2CCN2CCOCC2)c1` (centres undefined), with -7.89%. Regarding `CCc1ccc(CNC(=O)Cn2ccc3sccc3c2=O)cc1`, the cytotoxicity at 70.5 h stood at 2.36%.

In the case of `CN(C)CCOCc1cncc2c1CCN(C(=O)c1cscn1)C2`, the cytotoxicity at 70.5 h is -3.85%.

With `Cc1nn(C)c2c(N3CCN(C(=O)c4ccccc4)CC3)ncnc12`, the cytotoxicity at 70.5 h was -2.93%. As for `CSc1ccccc1NC(=O)C1CN(C(=O)c2ccc3c(c2)OCO3)C1`, the cytotoxicity at 70.5 h was 0.521%.

For the compound `CC1CN(C)c2ccccc2CN1C(=O)c1cc[nH]c(=O)c1` (centres undefined), the cytotoxicity at 70.5 h is -0.482%. As for `CC(C)c1cc(C(F)(F)F)n2nc(CCC(=O)O)nc2n1`, the cytotoxicity at 70.5 h was determined as 10.3%.

With `O=S(=O)(c1cccs1)N1CCC(c2nc(-c3cccs3)no2)CC1`, the cytotoxicity at 70.5 h was found to be 1.6%.

`COc1cc2ccn(CCS(C)(=O)=O)c(=O)c2cc1F`: the cytotoxicity at 70.5 h is -2.4%.

For `N#Cc1ccc(CN(CC(N)=O)C2CCCC2)cc1`, the cytotoxicity at 70.5 h is -9.26%. Regarding `Cc1nn(C)c(C)c1-c1ccc(=O)n(C(C)C(=O)NCc2ccco2)n1` (centres undefined), the cytotoxicity at 70.5 h was -7.42%. The value for `COc1ccc(C)c2c1N(C(=O)c1ccc3nnc(C)n3c1)CCC2` was -2.94%; that for `Cn1ccnc1CN1CCC2(CCCN2c2ncccn2)CC1` was -0.454%.

For `CCc1ccccc1C(=O)N1CCCC1CC(=O)c1cnn(C)c1` (centres undefined), the cytotoxicity at 70.5 h was -13.4%.

With `CNC(=O)Cc1n[nH]c(-c2cncc(Br)c2)n1`, the cytotoxicity at 70.5 h was 27.1%. As to `CCc1ccc(C2CCCCCN2C(=O)CNC(=O)C2CC2)o1` (centres undefined), the cytotoxicity at 70.5 h is -1.46%. On to `CC(C)OCCN1CCC(Nc2ccc(C#N)cc2F)CC1`, for which the cytotoxicity at 70.5 h was -8.23%. Turning to `Clc1cccc2c1CCN(Cc1nc(CC3CC3)no1)C2`, the cytotoxicity at 70.5 h was -5.71%.

With `CCOCCCn1c(NC(=O)c2cnn(C)c2)nc2ccccc21`, the cytotoxicity at 70.5 h was -13.3%. Then `CC(C)CN1CCN(C(=O)Nc2cc(C(F)(F)F)c[nH]c2=O)CC1`, with -17.9%. Then `Cn1cc(CNc2ccc(CCO)cc2)c(-c2ccncc2)n1`, with 21.4%; and `CCc1nc(CN2CCCN(C(=O)C(CC)OC)CC2)cs1` (centres undefined), with 6.03%. Take `O=C1NCCN2CCN(C(=O)Nc3ccc(-c4ccccc4)cc3)CC12` (centres undefined): the cytotoxicity at 70.5 h is 10.4%. For `CCN(CCO)C[C@@H]1CN(c2cccc(C(F)(F)F)n2)C[C@@H]1CO`, the cytotoxicity at 70.5 h was -11.5%. Then `Cc1nc(CN2CCCn3c(nc(Cn4ccnc4)cc3=O)C2)cs1`, with -21.2%; and `CCn1c(N)nc2cc(C(=O)NCCc3nnc(C)s3)cnc21`, with -24.8%. Regarding `Cc1nnc(NC(=O)C2CSCN2C(=O)C2CCCC2)s1` (centres undefined), the cytotoxicity at 70.5 h is -3.18%. Regarding `Cc1nn(C)c(C)c1C1CCCN1C(=O)c1ccc(N(C)C)nc1` (centres undefined), the cytotoxicity at 70.5 h is -0.439%. For the compound `Cc1n[nH]c(C)c1CNC(=O)NC1CCCN(c2ccccc2F)C1` (centres undefined), the cytotoxicity at 70.5 h is 6.33%. Then `O=S(=O)(CC1CC1)c1ncc(CN2CCSCC2)n1CC1CCCO1` (centres undefined), with -6.13%; and `Cn1cnc(-c2cc(C(=O)N3CCOCC3)c3ccccn23)c1`, with -31.4%; and `O=C1CO[C@H]2CN(S(=O)(=O)c3ccccc3)C[C@H]2N1c1ccccc1`, with -8.37%. For the compound `Cc1ccc2nc(C(=O)N3C[C@@H](C(=O)O)[C@H](c4cccnc4)C3)cn2c1`, the cytotoxicity at 70.5 h was -5.46%. The value for `CC(NC(=O)NCc1ccccc1)(C(=O)O)c1ccco1` (centres undefined) was -9.81%; that for `CS(=O)(=O)CCCNc1cccc(COC2CCCCC2)c1` was -12.7%. Then `c1cnn(CC2CN(Cc3nc(-c4ccsc4)no3)CCO2)c1` (centres undefined), with -16.6%. `CCC(Nc1nnnn1-c1ccccc1)C(=O)NCc1ccsc1` (centres undefined): the cytotoxicity at 70.5 h was -12.5%.

For the compound `CC(CN1CCOCC1)NC(=O)NCc1ccc(Cl)s1` (centres undefined), the cytotoxicity at 70.5 h is -7.44%.

For `Cc1noc(C(C)C)c1C(=O)NCC1CCCN1Cc1ccccc1` (centres undefined), the cytotoxicity at 70.5 h was found to be 9.45%. For `CC(C)=CCN1CCN(C(=O)C2CC2)CC1`, the cytotoxicity at 70.5 h turned out to be 2.37%. Turning to `O=C(NC[C@H]1OC[C@@H]2CCN(C(=O)c3ccco3)C[C@@H]21)C1CC1`, the cytotoxicity at 70.5 h is -6.37%.

Regarding `COc1ncccc1-c1nc(-c2ccccn2)nn1C1CCN(C)CC1`, the cytotoxicity at 70.5 h was -6.87%. In the case of `Cn1ncc2c(=O)[nH]c(CN3CCC(Cc4ccccc4)CC3)nc21`, the cytotoxicity at 70.5 h is 34.8%.

The values are drawn from ChEMBL document CHEMBL3507680, “University of Dundee, Gates Library screen for HepG2 cell viability”.
